{
  "source": "patent US9079866B2",
  "about": "“Flap modulators” (JANSSEN PHARMACEUTICA NV, priority 2013, dated 2015)",
  "note": "Where a name gives a salt, the structure may show the parent alone.",
  "data": [
    {"target": "human FLAP (Homo sapiens (Human), UniProt P20292)", "sequence (P20292 whole entry)": "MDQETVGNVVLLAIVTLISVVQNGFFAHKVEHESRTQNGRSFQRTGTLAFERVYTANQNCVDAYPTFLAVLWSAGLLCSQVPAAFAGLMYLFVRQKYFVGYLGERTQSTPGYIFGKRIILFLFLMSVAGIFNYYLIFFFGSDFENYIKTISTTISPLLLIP", "assay": "FLAP binding assay (HTRF format)", "details": "human FLAP wild type, HTRF format; average of two plates, duplicates", "method_in_brief": "(§1)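 Read-out is the HTRF ratio. Each reported figure averages two assay plates on which samples were tested in duplicate.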", "units": {"Ki": "nM"}, "values": [
      {"smiles": "CN(C)S(=O)(=O)c1ccccc1-c1ccc(-c2cnc(N)nc2)c(F)c1", "note": "[Example 299, 4′-(2-Aminopyrimidin-5-yl)-3′-fluoro-N,N-dimethylbiphenyl-2-sulfonamide trifluoroacetic acid salt]", "Ki": 121},
      {"smiles": "Nc1ncc(-c2ccc(-c3ccccc3NS(=O)(=O)N3CCOCC3)cc2F)cn1", "note": "[Example 310, N-[4′-(2-Aminopyrimidin-5-yl)-3′-fluorobiphenyl-2-yl]morpholine-4-sulfonamide]", "Ki": 492},
      {"smiles": "CN(C)S(=O)(=O)Nc1ccccc1-c1ccc(-c2cnc(N)nc2)c(F)c1", "note": "[Example 311, N′-[4′-(2-Aminopyrimidin-5-yl)-3′-fluorobiphenyl-2-yl]-N,N-dimethylsulfamide]", "Ki": 747},
      {"smiles": "CS(=O)(=O)c1ccccc1-c1ccc(-c2ccc(N)nc2)c(F)c1", "note": "[Example 341, 5-(3-Fluoro-2′-(methylsulfonyl)-[1,1′-biphenyl]-4-yl)pyridin-2-amine]", "Ki": "> 10000"},
      {"smiles": "Nc1ncc(-c2ccc(-c3ccccc3S(=O)(=O)N3CCNC(=O)C3)cc2F)cn1", "note": "[Example 306, 4-{[4′-(2-Aminopyrimidin-5-yl)-3′-fluorobiphenyl-2-yl]sulfonyl}piperazin-2-one trifluoroacetic acid salt]", "Ki": 397},
      {"smiles": "Nc1ncc(-c2ccc(-c3ccccc3S(=O)(=O)C3CCS(=O)(=O)CC3)cc2F)cn1", "note": "[Example 316, 5-{2′-[(1,1-Dioxidotetrahydro-2H-thiopyran-4-yl)sulfonyl]-3-fluorobiphenyl-4-yl}pyrimidin-2-amine hydrochloride]", "Ki": 746},
      {"smiles": "C[C@H](NS(=O)(=O)c1ccccc1-c1ccc(-c2cnc(N)nc2)c(F)c1)C(=O)O", "note": "[Example 308, N-{[4′-(2-Aminopyrimidin-5-yl)-3′-fluorobiphenyl-2-yl]sulfonyl}-L-alanine]", "Ki": "> 10000"},
      {"smiles": "CCS(=O)(=O)c1ccccc1-c1ccc(-c2cnc(N)cn2)c(F)c1", "note": "[Example 191, 5-[2′-(Ethylsulfonyl)-3-fluorobiphenyl-4-yl]pyrazin-2-amine]", "Ki": 658}
    ]},
    {"target": "human FLAP (Homo sapiens (Human), UniProt P20292)", "assay": "FLAP binding assay (HTRF format)", "details": "read-out: FLAP Binding wild type HTRF Ki", "method_in_brief": "as §1", "units": {"Ki": "nM"}, "values": [
      {"smiles": "Nc1cnc(-c2ccc(-c3ccccc3CS(=O)(=O)N3CCNC(=O)C3)cc2F)cn1", "note": "[Example 223, 4-({[4′-(5-Aminopyrazin-2-yl)-3′-fluorobiphenyl-2-yl]methyl}sulfonyl)piperazin-2-one formic acid salt]", "Ki": 663},
      {"smiles": "Nc1ncc(-c2ccc(-c3cccnc3S(=O)(=O)C3CCNC3)cc2F)cn1", "note": "(stereo not drawn) [Example 804, 5-(2-Fluoro-4-(2-(pyrrolidin-3-ylsulfonyl)pyridin-3-yl)phenyl)pyrimidin-2-amine formic acid salt]", "Ki": 636}
    ]},
    {"target": "human FLAP (Homo sapiens (Human), UniProt P20292)", "assay": "FLAP binding assay (HTRF format)", "details": "wild type FLAP, HTRF format", "method_in_brief": "as §1", "units": {"Ki": "nM"}, "values": [
      {"smiles": "C[C@H](CO)Oc1ncccc1-c1ccc(-c2cnc(N)nc2)c(F)c1", "note": "[Example 658, (2I)-2-({3-[4-(2-Aminopyrimidin-5-yl)-3-fluorophenyl]pyridin-2-yl}oxy)propan-1-ol]", "Ki": 572},
      {"smiles": "NC(=O)c1ccccc1-c1ccc(-c2cnc(N)cn2)c(F)c1", "note": "[Example 486, 4′-(5-Aminopyrazin-2-yl)-3′-fluorobiphenyl-2-carboxamide]", "Ki": 2500},
      {"smiles": "Nc1ncc(-c2ccc(-c3cccnc3C(=O)N3CCOCC3)cc2F)cn1", "note": "[Example 782, 5-{2-Fluoro-4-[2-(morpholin-4-ylcarbonyl)pyridin-3-yl]phenyl}pyrimidin-2-amine]", "Ki": "> 10000"},
      {"smiles": "Nc1cnc(-c2ccc(-c3ccccc3C(=O)N3CC[C@H](O)C3)cc2F)cn1", "note": "[Example 771, (3S)-1-{[4′-(5-Aminopyrazin-2-yl)-3′-fluorobiphenyl-2-yl]carbonyl}pyrrolidin-3-ol]", "Ki": "> 10000"},
      {"smiles": "Nc1cnc(-c2ccc(-c3c(F)cccc3F)cc2F)cn1", "note": "[Example 478, 5-(2′,3,6′-Trifluorobiphenyl-4-yl)pyrazin-2-amine]", "Ki": 250},
      {"smiles": "Nc1ncc(-c2ccc(-c3cccnc3S(=O)(=O)CCN3CCOCC3)cc2F)cn1", "note": "[Example 821, 5-(2-Fluoro-4-(2-((2-morpholinoethyl)sulfonyl)pyridine-3-yl)phenyl)pyrimidin-2-amine formic acid salt]", "Ki": "> 10000"},
      {"smiles": "Nc1ncc(-c2ccc(-c3ccccc3S(=O)(=O)c3ccncn3)cc2F)cn1", "note": "[Example 720, 5-[3-Fluoro-2′-(pyrimidin-4-ylsulfonyl)biphenyl-4-yl]pyrimidin-2-amine]", "Ki": "> 10000"},
      {"smiles": "CC(C)(C)NS(=O)(=O)c1ccccc1-c1ccc(-c2cn3c(C#N)cccc3n2)c(F)c1", "note": "[Example 584, N-tert-Butyl-4′-(5-cyanoimidazo[1,2-a]pyridin-2-yl)-3′-fluorobiphenyl-2-sulfonamide]", "Ki": "> 10000"},
      {"smiles": "Cc1cc(-c2ccccc2S(=O)(=O)N(C)C)ccc1-c1cnc(N)cn1", "note": "[Example 591, 4′-(5-Aminopyrazin-2-yl)-N,N,3′-trimethylbiphenyl-2-sulfonamide]", "Ki": "~2490"},
      {"smiles": "Nc1ncc(-c2ccc(-c3ccccc3Oc3ccnc(N)n3)cn2)cn1", "note": "[Example 567, 4-{2-[6-(2-Aminopyrimidin-5-yl)pyridin-3-yl]phenoxy}pyrimidin-2-amine]", "Ki": 1140},
      {"smiles": "Nc1cnc(-c2ccc(-c3cccnc3C(=O)N3CCOCC3)cc2F)cn1", "note": "[Example 783, 5-{2-Fluoro-4-[2-(morpholin-4-ylcarbonyl)pyridin-3-yl]phenyl}pyrazin-2-amine]", "Ki": "> 10000"},
      {"smiles": "Nc1cnc(-c2ccc(-c3cccnc3N3CCCC3)cc2F)cn1", "note": "[Example 859, 5-[2-Fluoro-4-(2-pyrrolidin-1-ylpyridin-3-yl)phenyl]pyrazin-2-amine]", "Ki": "~1250"},
      {"smiles": "Nc1cnc(-c2ccc(-c3ccccc3S(N)(=O)=O)cc2)cn1", "note": "[Example 594, 4′-(5-Aminopyrazin-2-yl)biphenyl-2-sulfonamide]", "Ki": "> 10000"},
      {"smiles": "CC(CO)Oc1ncccc1-c1ccc(-c2cnc(N)nc2)c(F)c1", "note": "(stereo in doubt) [Example 656, (2R)-2-({3-[4-(2-Aminopyrimidin-5-yl)-3-fluorophenyl]pyridin-2-yl}oxy)propan-1-ol]", "Ki": 1400},
      {"smiles": "CCc1ccccc1-c1ccc(-c2cnc(N)cn2)c(F)c1", "note": "[Example 480, 5-(2′-Ethyl-3-fluorobiphenyl-4-yl)pyrazin-2-amine]", "Ki": 354},
      {"smiles": "Nc1ncc(-c2ccc(-c3ccccc3C(=O)N3CCOC(CO)C3)cc2F)cn1", "note": "(racemic) [Example 799, racemic [2-[4-(2-Aminopyrimidin-5-yl)-3-fluoro-phenyl]phenyl]-[2-(hydroxymethyl)morpholin-4-yl]methanone]", "Ki": "> 10000"},
      {"smiles": "Nc1cnc(-c2ccc(-c3ccccc3C(=O)NC3CCOCC3)cc2F)cn1", "note": "[Example 756, 4′-(5-Aminopyrazin-2-yl)-3′-fluoro-N-(tetrahydro-2H-pyran-4-yl)biphenyl-2-carboxamide]", "Ki": "> 10000"},
      {"smiles": "Nc1cnc(-c2ccc(-c3ccccc3C(=O)N3CCC[C@H](O)C3)cc2F)cn1", "note": "[Example 768, (3S)-1-{[4′-(5-Aminopyrazin-2-yl)-3′-fluorobiphenyl-2-yl]carbonyl}piperidin-3-ol]", "Ki": 573},
      {"smiles": "CC(C)(C(N)=O)S(=O)(=O)c1ccccc1-c1ccc(-c2cnc(N)nc2)c(F)c1", "note": "[Example 733, 2-{[4′-(2-Aminopyrimidin-5-yl)-3′-fluorobiphenyl-2-yl]sulfonyl}-2-methylpropanamide]", "Ki": "> 10000"},
      {"smiles": "Nc1ncc(-c2ccc(-c3ccccc3C(=O)N3CCNC(=O)C3)cc2F)cn1", "note": "[Example 520, 4-{[4′-(2-Aminopyrimidin-5-yl)-3′-fluorobiphenyl-2-yl]carbonyl}piperazin-2-one]", "Ki": "> 10000"},
      {"smiles": "C[C@@H](NC(=O)c1ccccc1-c1ccc(-c2cnc(N)nc2)c(F)c1)C(F)(F)F", "note": "[Example 518, 4′-(2-Aminopyrimidin-5-yl)-3′-fluoro-N-[(1R)-2,2,2-trifluoro-1-methylethyl]biphenyl-2-carboxamide]", "Ki": "> 10000"},
      {"smiles": "Nc1cnc(-c2ccc(-c3ccccc3S(=O)(=O)c3cc(N)ncn3)cc2F)cn1", "note": "[Example 726, 6-{[4′-(5-Aminopyrazin-2-yl)-3′-fluorobiphenyl-2-yl]sulfonyl}pyrimidin-4-amine]", "Ki": 904},
      {"smiles": "Nc1cnc(-c2ccc(-c3ccccc3C(=O)N3CC[C@@H](O)C3)cc2F)cn1", "note": "[Example 769, (3R)-1-{[4′-(5-Aminopyrazin-2-yl)-3′-fluorobiphenyl-2-yl]carbonyl}pyrrolidin-3-ol]", "Ki": 1540},
      {"smiles": "NC(=O)CS(=O)(=O)c1ccccc1-c1ccc(-c2cnc(N)nc2)c(F)c1", "note": "[Example 599, 2-{[4′-(2-Aminopyrimidin-5-yl)-3′-fluorobiphenyl-2-yl]sulfonyl}acetamide]", "Ki": "> 10000"},
      {"smiles": "COCCCS(=O)(=O)c1ncccc1-c1ccc(-c2cnc(N)nc2)c(F)c1", "note": "[Example 817, 5-(2-Fluoro-4-(2-((3-methoxypropyl)sulfonyl)pyridine-3-yl)phenyl)pyrimidin-2-amine hydrogen chloride salt]", "Ki": 463},
      {"smiles": "CC(C)(C#N)S(=O)(=O)c1ccccc1-c1ccc(-c2cnc(N)nc2)c(F)c1", "note": "[Example 732, 2-{[4′-(2-Aminopyrimidin-5-yl)-3′-fluorobiphenyl-2-yl]sulfonyl}-2-methylpropanenitrile]", "Ki": 557},
      {"smiles": "Nc1cnc(-c2ccc(-c3ccccc3C(=O)N3CCC(N)CC3)cc2F)cn1", "note": "[Example 515, 5-{2′-[(4-Aminopiperidin-1-yl)carbonyl]-3-fluorobiphenyl-4-yl}pyrazin-2-amine]", "Ki": "> 10000"},
      {"smiles": "Nc1ncc(-c2ccc(-c3ccccc3OCCO)cc2F)cn1", "note": "[Example 629, 2-{[4′-(2-Aminopyrimidin-5-yl)-3′-fluorobiphenyl-2-yl]oxy}ethanol]", "Ki": 836},
      {"smiles": "Cc1ccccc1-c1ccc(-c2cnc(N)cn2)c(F)c1", "note": "[Example 470, 5-(3-Fluoro-2′-methylbiphenyl-4-yl)pyrazin-2-amine]", "Ki": 620},
      {"smiles": "Nc1ncc(-c2ccc(-c3ccc(C(F)(F)F)cc3C(=O)N3CCC(O)CC3)cc2F)cn1", "note": "[Example 796, [2-[4-(2-Aminopyrimidin-5-yl)-3-fluoro-phenyl]-5-(trifluoromethyl)phenyl]-(4-hydroxy-1-piperidyl)methanone]", "Ki": 391},
      {"smiles": "Nc1cnc(-c2ccc(-c3ccccc3)c(F)c2F)cn1", "note": "[Example 833, 5-(2,3-Difluorobiphenyl-4-yl)pyrazin-2-amine]", "Ki": "~500"},
      {"smiles": "CC(C)(C)NS(=O)(=O)c1ccccc1-c1ccc(-c2ncc3cc[nH]c3n2)c(F)c1", "note": "[Example 418, N-tert-Butyl-3′-fluoro-4′-(7H-pyrrolo[2,3-d]pyrimidin-2-yl)biphenyl-2-sulfonamide]", "Ki": 1250}
    ]}
  ]
}
